Consider 66 molecules from patent US20230027929A1, “MrgprX2 Antagonists and Uses Thereof” (Dermira, Inc., priority 2019, published 2023).

For the assay, the target named is T1, hMrgpMRGPRX2 (Homo sapiens, UniProt Q96LB1).
T1 construct: expressed in transfected cells
T1 sequence (Q96LB1 1-330): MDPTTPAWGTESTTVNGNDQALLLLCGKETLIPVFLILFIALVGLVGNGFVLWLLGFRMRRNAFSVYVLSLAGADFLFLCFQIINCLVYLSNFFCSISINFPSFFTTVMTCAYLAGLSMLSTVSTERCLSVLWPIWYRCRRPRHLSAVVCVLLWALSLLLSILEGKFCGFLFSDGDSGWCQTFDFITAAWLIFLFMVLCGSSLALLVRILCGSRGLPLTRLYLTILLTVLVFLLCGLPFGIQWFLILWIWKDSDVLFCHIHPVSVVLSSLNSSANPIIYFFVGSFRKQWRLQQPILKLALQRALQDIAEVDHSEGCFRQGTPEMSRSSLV
Description: FLIPR intracellular calcium mobilization, antagonist activity in recombinant hMrgpMRGPRX2 expressing cells. It is filed as cell-based. The note with it: read-out: Human MrgprX2 Antagonist pIC50 (converted). In short, it runs like this: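 Antagonist activity was read as inhibition of intracellular calcium mobilization (FLIPR) in recombinant cells expressing human MrgprX2. Potency was also checked in LAD-2 human mast cells with endogenous receptor, and orthologue activity in cells expressing mouse MrgprB2, mouse MrgprA1, and gerbil, Chinese hamster and cynomolgus orthologues.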
(Calcium assays in cells follow changes in intracellular calcium, usually with a dye or a luminescent sensor.)
As to `CCN(C[C@@H](O)C(F)(F)F)C(=O)Nc1ccc(-c2cc(F)cc(C#N)c2)cn1` [Compound E192], the IC50 is 1200 nM.
The same measure for `CN(C)C(=O)Nc1ccc(-c2cc(F)cc(F)c2)cn1` [Compound E193]: 6310 nM.
With `CCN(C[C@@H](O)C(F)(F)F)C(=O)Nc1ccc(-c2cc(F)cc(F)c2)cn1` [Compound E194] the figure was 214 nM; with `CCN(C[C@H](C)O)C(=O)Nc1ccc(-c2ccccc2)cn1` [Compound E195], 5010 nM.
Take `CCN(C[C@@H](O)C(F)(F)F)C(=O)Nc1ccc(F)cn1` [Compound E196]: the IC50 was 851 nM.
The same measure for `CCN(C[C@@H](O)C(F)(F)F)C(=O)Nc1ccc(-c2ncco2)cn1` [Compound E197, 1-ethyl-3-(5-oxazol-2-yl-2-pyridyl)-1-[(2R)-3,3,3-trifluoro-2-hydroxy-propyl]urea]: 3090 nM; for `CC1(C)C(C(=O)Nc2ccc(-c3ncco3)cn2)C1(C)C` [Compound E198, 2,2,3,3-tetramethyl-N-(5-oxazol-2-yl-2-pyridyl)cyclopropanecarboxamide]: 33.9 nM; for `CC1(C)C(C(=O)Nc2ccc(-n3cccn3)cn2)C1(C)C` [Compound E199, 2,2,3,3-tetramethyl-N-(5-pyrazol-1-yl-2-pyridyl)cyclopropanecarboxamide]: 33.9 nM.
For the molecule `CC1(C)C(C(=O)Nc2ccc(I)cn2)C1(C)C` [Compound E200, N-(5-iodo-2-pyridyl)-2,2,3,3-tetramethyl-cyclopropanecarboxamide], the IC50 is 14.8 nM.
The same measure for `CN(C)c1ccc(NC(=O)C2C(C)(C)C2(C)C)nc1` [Compound E201, N-[5-(dimethylamino)-2-pyridyl]-2,2,3,3-tetramethyl-cyclopropanecarboxamide]: 162 nM; for `CC(C)C(=O)Nc1ccc(Br)cn1` [Compound E202]: 6310 nM; for `CC1(C)C(C(=O)Nc2cc(C(F)(F)F)ccn2)C1(C)C` [Compound E203]: 1580 nM.
In the case of `CC1(C)C(C(=O)Nc2ccc(Cl)cn2)C1(C)C` [Compound E204], the IC50 is 1.58 nM.
Turning to `CC1(C)C(C(=O)Nc2ccc(C(F)(F)F)cn2)C1(C)C` [Compound E205], the IC50 is 501 nM.
The same measure for `CC1(C)C(C(=O)Nc2ccc(C#N)cn2)C1(C)C` [Compound E206]: 251 nM; for `CC1(C)C(C(=O)Nc2cc(C#N)ccn2)C1(C)C` [Compound E207]: 3160 nM.
Consider `CC1(C)CC1C(=O)Nc1cc(Cl)ccn1` (stereo not drawn) [Compound E208], for which the IC50 was 3160 nM.
With `C[C@H](C(=O)Nc1ccccn1)c1ccccc1` [Compound E209] the figure was 2510 nM.
With `C[C@@H](C(=O)Nc1ccccn1)c1ccccc1` [Compound E210] the figure was 2000 nM; with `CC1(C)C(C(=O)Nc2ccc(F)cn2)C1(C)C` [Compound E211], 1.26 nM; with `COc1ccc(NC(=O)C2C(C)(C)C2(C)C)nc1` [Compound E212], 20 nM.
The same measure for `Cc1cnc(NC(=O)C2C(C)(C)C2(C)C)cn1` [Compound E213]: 1580 nM; for `CC1(C)C(C(=O)Nc2cnc(Cl)cn2)C1(C)C` [Compound E214]: 100 nM; for `COc1cnc(NC(=O)C2C(C)(C)C2(C)C)cn1` [Compound E215]: 200 nM.
On to `CC1(C)C(C(=O)Nc2cc3c(cn2)OCCO3)C1(C)C` [Compound E216], for which the IC50 is 331 nM.
As to `CC(C)C(=O)Nc1cnc(Oc2ccccc2)cn1` [Compound E217, 2-methyl-N-(5-phenoxypyrazin-2-yl)propanamide], the IC50 is 7940 nM.
On to `CC(C)C(=O)Nc1cnc(Oc2cc(F)cc(F)c2)cn1` [Compound E218], for which the IC50 is 316 nM.
The same measure for `CC1(C)CC1C(=O)Nc1cnc(Oc2cc(F)cc(F)c2)cn1` (stereo not drawn) [Compound E219]: 25.1 nM.
The same measure for `CC1(C)C(C(=O)Nc2cnc(Oc3cc(F)cc(F)c3)cn2)C1(C)C` [Compound E220]: 1.58 nM.
As for `Cn1cc(Oc2cnc(NC(=O)C3C(C)(C)C3(C)C)cn2)cn1` [Compound E221], the IC50 is 28.8 nM.
With `CC1(C)C(C(=O)Nc2cnc(Oc3cncc(F)c3)cn2)C1(C)C` [Compound E222] the figure was 12.6 nM.
The same measure for `CC1(C)C(C(=O)Nc2cnc(Oc3cc(F)cc(C#N)c3)cn2)C1(C)C` [Compound E223]: 31.6 nM.
The same measure for `CC1(C)C(C(=O)Nc2cnc(Oc3ccc(F)c(F)c3)cn2)C1(C)C` [Compound E224]: 3.98 nM; for `CC1(C)CC1C(=O)Nc1cnc(Oc2ccc(F)c(F)c2)cn1` (stereo not drawn) [Compound E225]: 63.1 nM.
In the case of `CC1(C)CC1C(=O)Nc1cnc(-c2cc(F)ccc2F)cn1` (stereo not drawn) [Compound E226, N-[5-(2,5-difluorophenyl)pyrazin-2-yl]-2,2-dimethyl-cyclopropanecarboxamide], the IC50 is 34.7 nM.
With `CC1(C)C(C(=O)Nc2cnc(-c3cc(F)cc(F)c3)cn2)C1(C)C` [Compound E227] the figure was 33.9 nM; with `CC1(C)CC1C(=O)Nc1cnc(-c2cc(F)cc(F)c2)cn1` (stereo not drawn) [Compound E228, N-[5-(3,5-difluorophenyl)pyrazin-2-yl]-2,2-dimethyl-cyclopropanecarboxamide], 95.5 nM; with `CC1(C)CC1C(=O)Nc1cnc(-c2cccc(F)c2F)cn1` (stereo not drawn) [Compound E229], 6610 nM.
The same measure for `CC1(C)CC1C(=O)Nc1cnc(-c2cc(F)cc(C#N)c2)cn1` (stereo not drawn) [Compound E230]: 288 nM.
The same measure for `CC1(C)C(C(=O)Nc2cnc(N3CCCC3)cn2)C1(C)C` [Compound E233, 2,2,3,3-tetramethyl-N-(5-pyrrolidin-1-ylpyrazin-2-yl)cyclopropanecarboxamide]: 331 nM.
For `CC(C)N(C)C(=O)Nc1cnc(Oc2cc(F)cc(F)c2)cn1` [Compound E234, 3-[5-(3,5-difluorophenoxy)pyrazin-2-yl]-1-isopropyl-1-methyl-urea], the IC50 is 631 nM.
With `CCN(C[C@H](C)O)C(=O)Nc1cnc(Oc2cc(F)cc(F)c2)cn1` [Compound E235] the figure was 1410 nM; with `CCN(C[C@@H](O)C(F)(F)F)C(=O)Nc1cnc(Oc2cc(F)cc(F)c2)cn1` [Compound E236], 31.6 nM.
The same measure for `CCN(C[C@@H](O)C(F)(F)F)C(=O)Nc1cnc(-c2cc(F)ccc2F)cn1` [Compound E237]: 603 nM.
For `CN(C[C@@](C)(O)C(F)(F)F)C(=O)Nc1cnc(Oc2cc(F)cc(F)c2)cn1` [Compound E238], the IC50 is 45.7 nM.
With `CCN(C[C@@H](O)C(F)(F)F)C(=O)Nc1cnc(Oc2cccc(F)c2F)cn1` [Compound E239] the figure was 6.61 nM.
With `CCN(C[C@@H](O)C(F)(F)F)C(=O)Nc1cnc(Oc2ccc(F)c(F)c2)cn1` [Compound E240] the figure was 110 nM; with `CCN(C[C@@H](O)C(F)(F)F)C(=O)Nc1cnc(Oc2cc(F)ccc2F)cn1` [Compound E241], 1.7 nM; with `CCN(C[C@@H](O)C(F)(F)F)C(=O)Nc1cnc(Oc2cc(F)cc(F)c2)c(C)n1` [Compound E242], 7410 nM.
The same measure for `CN(C[C@@H](O)C(F)(F)F)C(=O)Nc1cnc(Oc2cccc(F)c2F)cn1` [Compound E243]: 58.9 nM; for `CCN(C[C@@H](O)C(F)(F)F)C(=O)Nc1cnc(Oc2c(F)cccc2F)cn1` [Compound E244]: 26.9 nM.
Turning to `CN(C[C@@H](O)C(F)(F)F)C(=O)Nc1cnc(Oc2cc(F)ccc2F)cn1` [Compound E245], the IC50 is 8.51 nM.
The same measure for `CCN(C[C@@H](O)C(F)(F)F)C(=O)Nc1cnc(Oc2cccc(C#N)c2F)cn1` [Compound E246]: 2140 nM.
Take `CCN(C[C@@H](O)C(F)(F)F)C(=O)Nc1cnc(Oc2cccc(F)c2)cn1` [Compound E247]: the IC50 is 302 nM.
With `CCN(C[C@@H](O)C(F)(F)F)C(=O)Nc1cnc(Oc2ccccc2F)cn1` [Compound E248] the figure was 8.51 nM; with `CCN(C[C@@H](O)C(F)(F)F)C(=O)Nc1cnc(Oc2ccc(F)cc2F)cn1` [Compound E249], 1.62 nM.
The same measure for `CN(C[C@@](C)(O)C(F)(F)F)C(=O)Nc1cnc(Oc2cc(F)ccc2F)cn1` [Compound E250]: 2.57 nM; for `CCN(C[C@@H](O)C(F)(F)F)C(=O)Nc1cnc(Oc2cccc(F)c2C#N)cn1` [Compound E251]: 26.9 nM; for `CCN(C[C@@H](O)C(F)(F)F)C(=O)Nc1cnc(Oc2ccc(F)cc2)cn1` [Compound E252]: 589 nM.
The same measure for `CN(C[C@@](C)(O)C(F)(F)F)C(=O)Nc1cnc(Oc2ccc(F)cc2F)cn1` [Compound E253]: 3.89 nM.
For `CCN(C[C@@H](O)C(F)(F)F)C(=O)Nc1cnc(Oc2ccc(F)cc2C#N)cn1` [Compound E254], the IC50 was 30.9 nM.
For `CN(C[C@@H](O)C(F)(F)F)C(=O)Nc1cnc(Oc2ccc(F)cc2F)cn1` [Compound E255], the IC50 was 13.2 nM.
With `CCN(C[C@@H](O)C(F)(F)F)C(=O)Nc1cnc(Oc2ccc(C#N)cc2F)cn1` [Compound E256] the figure was 347 nM; with `CCN(C[C@@H](O)C(F)(F)F)C(=O)Nc1cnc(Oc2ccc(Cl)cc2F)cn1` [Compound E257], 14.8 nM.
Turning to `CCN(C[C@@](C)(O)C(F)(F)F)C(=O)Nc1cnc(Oc2ccc(F)cc2F)cn1` [Compound E258], the IC50 was 1.55 nM.
With `CCN(C[C@@](C)(O)C(F)(F)F)C(=O)Nc1cnc(Oc2cc(F)ccc2F)cn1` [Compound E259] the figure was 1.7 nM.
